Results on 4 molecules are retold here after patent publication US12390459B2, “Methods for solid tumor treatment” (CRITITECH, INC., priority 2016, dated 2025).

Read-outs that look alike come from different tables or passages of the source.

Data set [1] can be described thus: Particle size analysis (light obscuration and laser diffraction). It is filed as physicochemical. The method, then:
Particle size was analyzed by both light obscuration and laser diffraction methods. An Particle Sizing Systems AccuSizer 780 SIS system was used for the light obscuration method and Shimadzu SALD-7101 was used for the laser diffraction method.
The vials were vortexed for approximately 10 seconds and then sonicated in a sonic bath approximately 1 minute.
The vial was vortexed for approximately 10 seconds and then sonicated in a sonic bath for approximately 2 minutes. This suspension was used for laser diffraction analysis. Unused suspension was poured into a 125 mL particle-free plastic bottle, which was then filled to approximately 100 mL with filtered dispersant. The suspension was vortex for approximately 10 seconds and then sonicated in the sonic bath for approximately 2 minutes. This diluted suspension was used for light obscuration analysis.
A background test was first performed prior to analyzing particles on the AccuSizer 780 SIS. A new particle-free plastic bottle was filled with blank suspension solution by pumping from a reservoir, using a peristaltic pump, through a 0.22 μm Millipore filter and into the bottle. A background analysis was run to ensure the particle/mL count was below 100 particles/mL. […] Once the analysis was completed, the background data was removed and any measurement with less than four counts was removed.
To analyze particles on SALD-7101 using a batch cell, the analysis was started by choosing Manual Measurement. The refractive index was set as 1.5 to 1.7. The batch cell was filled with filtered dispersant just past the etched line. The blank measurement was ran. […] The measurements were executed, and the resulting graph with the highest level of confidence was selected; background was automatically accounted for.

Data set [2] can be described thus: Docetaxel dissolution study, USP Apparatus II (Paddle). It is filed as physicochemical. To be noted: for Docetaxel Dissolution: methanol/water 15/85, 37° C., pH 7. The method, then: At 5, 15, 30, 60, 120 and 225 minutes, a 5 mL aliquot was removed, filtered through a 0.22 μm filter, and analyzed on a UV/VIS spectrophotometer at 232 nm. Absorbance values of the samples were compared to those of standard solutions prepared in dissolution media to determine the amount of material dissolved.

Data set [3] in a line: Paclitaxel dissolution study, USP Apparatus II (Paddle). The data set is classed as physicochemical. To be noted: methanol/water 50/50 (v/v), 37° C., pH 7, 75 rpm. As to the method: Beads were transferred to a stainless steel mesh container and placed in the dissolution bath containing methanol/water 50/50 (v/v) media at 37° C., pH 7, and a USP Apparatus II (Paddle), operating at 75 rpm. At 10, 20, 30, 60, and 90 minutes, a 5 mL aliquot was removed, filtered through a 0.22 μm filter and analyzed on a U(V/V)is spectrophotometer at 227 nm. Absorbance values of the samples were compared to those of standard solutions prepared in dissolution media to determine the amount of material dissolved.

Data set [4] in a line: BET surface area analysis. It is filed as physicochemical. The method, then:
As used herein, the “specific surface area” is the total surface area of the taxane particle per unit of taxane mass as measured by the Brunauer-Emmett-Teller (“BET”) isotherm (i.e.: the BET SSA). As will be understood by those of skill in the art, the “taxane particles” can include both agglomerated taxane particles and non-agglomerated taxane particles; since the SSA is determined on a per gram basis it takes into account both agglomerated and non-agglomerated taxane particles in the composition. The BET specific surface area test procedure is a compendial method included in both the United States Pharmaceopeia and the European Pharmaceopeia.
A known mass between 200 and 300 mg of the analyte was added to a 30 mL sample tube. […] The automated test was then carried out using the BETWIN® software package and the surface area of each sample was subsequently calculated.

The subject of data set [5] is MX-1 human breast cancer xenografts. As to conditions: for animal deaths / animals euthanized: 30 mg/kg IV qwk×3, 10 mice; for inhibition of growth of the xenografts: 30 mg/kg IV qwk×3 vs vehicle. From the text:
Tumor model: A total of 88 female NCr-nu/nu mice were implanted with MX-1 breast tumor fragments from an in vivo passage subcutaneously (SC) on the right flank. The day of tumor cell implantation was designated as Day 0.
The NanoPac™ and NanoDoce™ are suspensions. Prior to filling each syringe and between the injections of each animal, the test article was gently swirled/inverted. Animals were observed once daily for mortality and moribundity. Adverse signs were documented by exception only. Body weights were collected twice weekly beginning on SD. Tumor measurements were taken twice weekly beginning on SD, using a digital caliper. Length and width were measured for each tumor. Tumor volume was determined using the formula for an ellipsoid sphere: Length×Width 2/2=Volume (mm^3). This formula was also used to calculate tumor weight, assuming unity density (1 mm^3=1 mg). Limit of tumor detection is 32 mg (4×4 mm). The experiment lasted for 63 days from the day of tumor implant. Animals whose weight decreased more than 30% from the weight on the first day of treatment or whose tumor reached 4,000 mg in weight, ulcerated, or sloughed off was euthanized prior to study termination.

Data set [6] deals with MDA-MB-231 human breast cancer xenografts. To be noted: for complete tumor regressions (animals): 30 mg/kg IV qwk×3; for animal deaths: 30 mg/kg IV qwk×3, 10 mice; for mean tumor weight: 30 mg/kg IV qwk×3, Day 29; for inhibition of growth of the xenografts: 30 mg/kg IV qwk×3, Day 29 vs vehicle; for % difference at nadir of response: 30 mg/kg IV qwk×3, Day 33; for tumor-free animals at the end of the study: 30 mg/kg IV qwk×3, Day 61; for tumor-free animals: IV treated group, Day 49. The source says: Study Design: A total of 88 female NCr-nu/nu mice were implanted with MDA-MB-231 breast tumor fragments from an in vivo passage subcutaneously (SC) on the right flank. The day of tumor cell implantation (Aug. 4, 2016) was designated as Day 0.
The NanoPac™ and NanoDoce™ are suspensions. Prior to filling each syringe and between the injections of each animal, the test article was gently swirled/inverted. Intratumoral administration of the test material entailed the use of six needle tracks per tumor (27 G ½ inch needle). One sixth of the dose volume was injected as a slow bolus in each track, with ˜15 seconds pause before removing the needle slowly, and moving to the next injection site spaced over the surface of the tumor. The animals were observed once daily for mortality and moribundity. The mice were weighed and the tumor measurements were taken twice weekly starting on the first day of treatment. Length and width were measured for each tumor. Tumor volume was determined using the formula for an ellipsoid sphere: Length×Width^2/2=Volume(mm^3)
This formula was also used to calculate tumor weight, assuming unity density (1 mm^3=1 mg). Limit of tumor detection was 32 mg (4×4 mm). The experiment lasted for 61 days from the day of tumor implant. Animals whose weight decreased more than 30% from the weight on the first day of treatment or whose tumor reached 4,000 mg in weight, ulcerated, or sloughed off was euthanized prior to study termination.

The test system of data set [7] is JIMT-1 human breast cancer xenografts. Description: JIMT-1 human breast cancer xenograft study. It is filed as in vivo, CB.17 SCID mice. To be noted: 30 mg/kg iv qwk×3. As to the method:
Test articles were as follows:
Adjust volume accordingly for body weight. […] Animals were monitored individually. […] When the endpoint is reached, the animals were euthanized.
Tumor growth inhibition was evaluated on D29 (the last day of dosing for animals receiving 5 admins, G1, 3, 4) at 1000 mm^3 and the study ended on D50 with a revised tumor volume endpoint of 600 mm^3 for overall survival analysis.
For orientation: Xenograft models place foreign cells or tissue in a host animal.

A short description of data set [8]: Paclitaxel concentration in JIMT-1 tumor tissue (LC/MS/MS). It is filed as in vivo, CB.17 SCID mice. To be noted: Group 5: 30 mg/kg, IV, qwk × 3; day 50, 35 days after last dose; individual animals. The method, then: The timing of the analysis for each group relative to the last day of drug administration is as follows: • 21 days after last dose for groups 1, 3 and 4; • 49 days for group 2; and • 35 days for group 5.
Tissue processing was carried out as follows: • 1. Control tumor tissue and tumor tissue samples were weighed and three volumes of water were added to each to yield samples with a dilution factor of 4. • 2. Tumor tissues were homogenized with a homogenizer FastPrep®-24 using a speed of 4.0 m/sec for 100 sec. • 3. 50 μL of control tumor tissue homogenate was added to separate wells of a 96 well plate for STDs, QC samples and blanks. • 4. To the control tumor tissue homogenates, 50 μL of the appropriate solution was added for STDs and QC samples (50 μL of diluent was added for blanks) • 5. For tumor tissue homogenate study samples, 50 μL of each sample was added to separate well of the 96-well plate and 50 μL aliquot of diluent was added to each tissue sample. • 6. To all samples, 200 μL of internal standard (200 ng/mL Warfarin) solution in ACN was added. • 7. The plate was vortexed vigorously for 10 minutes and then centrifuged for 10 minutes at 4000 rpm (Sorvall Legend X1R centrifuge, Thermo Scientific) at 15° C. • 8. After centrifugation, 100 μL aliquots of supernatant were transferred to a new 96-well plate containing 100 μL of water in each well. • 9. […]

Data set [9] concerns PC-3 human prostate carcinoma. Description: PC-3 prostate carcinoma xenograft, Study P-PPr-01-2015. As to conditions: IV 30 mg/kg qwk×3. It is filed as in vivo, nude mouse. The method, then:
Tumors were measured twice per week. Partial treatment outcome was based on percent tumor growth inhibition (% TGI), defined as the percent difference between the Day 32 median tumor volumes of treated and vehicle-control mice.

In the case of `CC(=O)O[C@@]12CO[C@@H]1C[C@H](O)[C@@]1(C)C(=O)[C@H](O)C3=C(C)[C@@H](OC(=O)[C@H](O)[C@@H](NC(=O)OC(C)(C)C)c4ccccc4)C[C@@](O)([C@@H](OC(=O)c4ccccc4)[C@H]21)C3(C)C` [Docetaxel Raw Material, docetaxel], the “Number Mean” value in [1] was 1.58 um. Moreover, the “Volume Mean” value in data set [1] is on record as 5.05 um. The “Docetaxel Dissolution” value was 0.0% in data set [2] (0 minutes); 3.2% in data set [2] (5 minutes); 6.9% in [2] (15 minutes); 11.2% in data set [2] (30 minutes); 16.4% in data set [2] (60 minutes); 22.4% in data set [2] (120 minutes). For the same molecule, in [2] (225 minutes), the “Docetaxel Dissolution” value was 26.8%. Besides, the “Dissolution (30 min)” value in data set [2] (methanol/water 15/85 (v/v), 37° C., pH 7, 75 rpm) amounted to 11%.

`CC(=O)O[C@H]1C(=O)[C@@]2(C)[C@H]([C@H](OC(=O)c3ccccc3)[C@]3(O)C[C@H](OC(=O)[C@H](O)[C@@H](NC(=O)c4ccccc4)c4ccccc4)C(C)=C1C3(C)C)[C@]1(OC(C)=O)CO[C@@H]1C[C@@H]2O` [Paclitaxel Raw Material, paclitaxel]: the “Number Mean” value in data set [1] was found to be 1.16 um. In data set [3], the “Dissolution (30 min)” value came to 18%. Moreover, the “Surface Area” value in [4] (BET) came to 10.4 m^2/g. This molecule also had a BET surface area in data set [4] (Example 1) of 7.25 m^2/g.

Consider `CC(=O)O[C@@]12CO[C@@H]1C[C@H](O)[C@@]1(C)C(=O)[C@H](O)C3=C(C)[C@@H](OC(=O)[C@H](O)[C@@H](NC(=O)OC(C)(C)C)c4ccccc4)C[C@@](O)([C@@H](OC(=O)c4ccccc4)[C@H]21)C3(C)C` [docetaxel], for which, in data set [5], the “animal deaths / animals euthanized” value is given as “two animals euthanized for body weight loss >30%” and the “inhibition of growth of the xenografts” value is on record as “significantly inhibited the growth”. Besides, the mean tumor weight in [5] (30 mg/kg IV qwk×3, Day 28) was 0.9 mg. In addition, the “animals with completely regressed tumors” value in data set [5] (30 mg/kg IV qwk×3, Day 31) is “nine”. Besides, in [5] (30 mg/kg IV qwk×3, Day 63), the “surviving animals tumor-free at the end of the study” value is reported as “eight”. In data set [6], the “complete tumor regressions (animals)” value is listed as 10, the animal deaths entry is reported as “no animal deaths”, the mean tumor weight turned out to be 16 mg and the “inhibition of growth of the xenografts” value is “significantly inhibited the growth”. In addition, in data set [6], the “% difference at nadir of response” value was −99.8%, the “tumor-free animals at the end of the study” value turned out to be 10 and the tumor-free animals result is given as “ten”. The same molecule returned a mean tumor volume in [6] (30 mg/kg IV qwk×3, Day 40) of 0.

On to `CC(=O)O[C@H]1C(=O)[C@@]2(C)[C@H]([C@H](OC(=O)c3ccccc3)[C@]3(O)C[C@H](OC(=O)[C@H](O)[C@@H](NC(=O)c4ccccc4)c4ccccc4)C(C)=C1C3(C)C)[C@]1(OC(C)=O)CO[C@@H]1C[C@@H]2O` [paclitaxel], for which, in data set [5], the “animal deaths / animals euthanized” value is on record as “without animal deaths” and the “inhibition of growth of the xenografts” value is recorded as “significantly inhibited the growth”. The molecule also gave a mean tumor weight in [5] (30 mg/kg IV qwk×3, Day 24) of 309 mg. The “% difference at nadir of response” value in data set [5] (30 mg/kg IV qwk×3, Day 31) is given as −86.0%. In addition, in data set [7], the TGI entry is listed as “significant TGI” and the survival extension entry is on record as “significantly improved survival extension”. Moreover, the “Paclitaxel Concentration in tumor tissue” value in data set [8] was “BQL < 1 ng/g”. Also, in data set [6], the “complete tumor regressions (animals)” value was “six”, the animal deaths entry is “without animal deaths”, the mean tumor weight came to 118 mg and the “inhibition of growth of the xenografts” value was “significantly inhibited the growth”. Moreover, in [6], the “% difference at nadir of response” value is on record as −97.4%, the “tumor-free animals at the end of the study” value is “three” and the tumor-free animals result is recorded as “three”. In addition, in [9], the TGI result is “significant TGI” and the survival extension result is “significantly improved survival extension”.
